# Source: US20080220416A1, “Compositions for Inhibiting Cell Growth and Inducing Apoptosis in Cancer Cells and Methods of Use Thereof” (THE BOARD OF TRUSTEES OF THE UNIVERSITY OF ILLINOI, priority 2004, published 2008)
# Peptide text beside a SMILES is read from it. * marks the point of attachment. Cbz = O=C(OCc1ccccc1)*
# Assays:
# NOXA = experiment: Western blot of NOXA after proteasome inhibitors in melanoma cells; assay type: cell-based, human; conditions: RJ002L, C8161, MUM2B, 18 hrs
# From the text: A panel of melanoma cells were used to assess the effect of bortezomib on pro-apoptotic proteins. RJ002L, C8161, MUM2B and SK-MeI-28 melanoma cells, as well as two normal melanocyte cultures (MC-010 and MC-012) were examined. Prior to testing, the RJ002L melanoma cell lines were maintained in RPMI supplemented with 10% FBS. Late passage melanoma cell lines (C8161, MUM2B and SK-Me1028) were utilized as previously described (Welch D et al., 1991, Int J Cancer 47:227-237; Bittner M et al., 2000, Nature 406:536-540). Normal human melanocytes were isolated from neonatal foreskins and cultured as previously described (Qin J et al., 2004, Mol Cancer Ther 3:895-902). Proliferating cells were examined by Western blot analysis before and after 18 hrs of exposure to bortezomib (1 μM). Antibodies were obtained as follows: Bad (SC-8044), Bcl-2 (SC-7382), Bcl-xL (SC-634), Mcl-1 (SC-819), Bak (SC-832) from Santa Cruz Biotechnology (Santa Cruz, Calif.); NOXA (OP180) from Calbiochem; Bid, Bim and PUMA from Cell Signaling (Beverly, Mass.); BAX from Upstate (Charlottesville, Va.); and β-actin from ICN (Irvine, Calif.). For the Western blot analysis, whole cell extracts were prepared as previously described (Denning M et al., 1998, J Biol Chem 273:29995-30002). Briefly, cells were harvested by scraping monolayers and washed with PBS. Cell pellets were resuspended in CHAPS buffers containing a protease inhibitor cocktail. Extracts were vigorously shaken at 4° C. for 15 min followed by centrifugation. Supernatants were collected and protein concentration determined using Bio-Rad reagent. Thirty to 50 microgram protein samples were resolved by SDS-polyacrylamide gel electrophoresis and transferred to polyvinylidene difluoride membrane by electroblotting. Membranes were probed with the various primary antibodies overnight at 4° C., followed by detection using ECL reagents (Amersham Pharmacia Biotech, Piscataway, N.J.) according to manufacturer's instructions.
# Two other proteasome inhibitors, lactasytsin and MG-132, were tested for the ability to induce NOXA in melanoma cells and melanocytes. […]
# C8161 melanoma cells = experiment: Proliferating versus serum-deprived C8161 melanoma cells, NOXA and apoptosis; assay type: cell-based, human; conditions: for NOXA induction: proliferating (10% FCS) or serum-deprived (no serum) C8161
# Method: C8161 melanoma cells were induced into a relatively quiescent state by serum withdrawal. Proliferation assays were conducted in the presence or absence of 10% fetal calf serum (FCS) by manual counting of melanoma cells in triplicate wells on days 0, 1, 2 and 3. […] By phase contrast microscopy, the withdrawal of FCS arrested the cells (data not shown). This growth arrest was confirmed by Western blots of the cells that were maintained as either rapidly proliferating cells in the presence of 10% FCS or were growth arrested by serum withdrawal and washing with PBS for either 1 or 2 days. Whole cell extracts were prepared and Western blot analysis was performed as described above in Example 8 using antibodies to NOXA, p21 (SC-817, Santa Cruz Biotechnology, Santa Cruz, Calif.) and β-actin as described here and above.
# Growth arrest induced by serum withdrawal was confirmed by induction of p21. […] Thus, not only can proteasome inhibitors selectively induce NOXA and kill melanoma cells and not kill melanocytes independent of p53, but melanoma cells are susceptible to killing even when maintained in a relatively quiescent state in vitro.
Structure (SMILES),"induction of BH3-only proteins (NOXA; SK-MeI-28, 1 μM)",NOXA induction (C8161 melanoma cells),cell death by apoptosis in serum-deprived cells (C8161 melanoma cells; serum-deprived versus proliferating C8161),NOXA induction (NOXA; 1 μM or 10 μM)
"CC(C)C[C@H](NC(=O)[C@H](Cc1ccccc1)NC(=O)c1cnccn1)B(O)O [bortezomib, N-(2-pyrazine)carbonyl-L-phenylalanine-L-leucine boronic acid]",only NOXA was consistently induced in all four melanoma cells,trigger prominent NOXA induction,comparable to that seen in bortezomib-treated proliferating melanoma cells,
"CC(C)C[C@@H](C=O)NC(=O)[C@H](CC(C)C)NC(=O)[C@H](CC(C)C)NC(=O)OCc1ccccc1 [MG-132, benzoxycarbonyl-Leucyl-Leucyl-Leucyl-aldehyde] (Cbz-Leu-Leu-Leu-aldehyde)",,trigger prominent NOXA induction,,induced high NOXA levels
